From patent publication US11147272B2, “Pyridone compounds and agricultural and horticultural fungicides comprising the same as active ingredients” (MITSUI CHEMICALS AGRO, INC., priority 2017, dated 2021)

Experiments:
Magnaporthe grisea = experiment: whole plant or invertebrate; type: in vivo; settings: 250 ppm drug solution sprayed on test plant
Alternaia brassicicola = experiment: Test Example C: Alternaria sooty spot on cabbage; type: in vivo; settings: 250 ppm drug solution sprayed on test plant
Text: Seeds of a test plant (cabbage variety: Shikidori) were planted and cultivated until the cotyledons extended.
<Control Value> Control value=100{1−(n/3)}

Puccinia recondita = experiment: Test Example E: Brown rust on wheat; type: in vivo; settings: 250 ppm drug solution sprayed on test plant
Phytophthora infestans = experiment: whole plant or invertebrate; type: in vivo; settings: 250 ppm drug solution sprayed on test plant
Botrytis cinerea = experiment: Test Example B: Gray mold on tomato; settings: 250 ppm drug solution sprayed on test plant
Plasmopara viticola = experiment: Test Example G: Downy mildew on vine; settings: 250 ppm drug solution sprayed (2.5 ml/pot), grape Neomuscat, 7 to 10 days after inoculation
[1] = system: Colletotrichum orbiculare; experiment: Test Example H: Anthracnose on cucumber; settings: 250 ppm drug solution sprayed (2.5 ml/pot), cucumber Sagami Hanjiro, 6 to 10 days after inoculation
[2] = system: Blumeria graminis f. sp. hordei; experiment: Test Example D: Powdery mildew on barley; settings: 250 ppm drug solution sprayed on test plant

CCCc1cc(I)c(=O)n(CCC)c1-c1c(F)cc(F)cc1F [compound 441]
L (50% or less control value): Test A control value (Magnaporthe grisea) | Test C control value (Alternaia brassicicola) | Test E control value (Puccinia recondita) | Test F control value (Phytophthora infestans) | Test B control value (Botrytis cinerea) | Test G control value (Plasmopara viticola) | Test D control value [2]
H (more than 50% control value): Test H control value [1]

CCCc1ccc(=O)n(CCC)c1-c1c(F)cc(OC)cc1F [compound 442]
H (more than 50% control value): Test A control value (Magnaporthe grisea) | Test E control value (Puccinia recondita) | Test G control value (Plasmopara viticola) | Test H control value [1] | Test D control value [2]
L (50% or less control value): Test C control value (Alternaia brassicicola) | Test F control value (Phytophthora infestans) | Test B control value (Botrytis cinerea)

CCCc1cc(Cl)c(=O)n(CCC)c1-c1c(F)cc(OC)cc1F [compound 443]
H (more than 50% control value): Test C control value (Alternaia brassicicola) | Test E control value (Puccinia recondita) | Test F control value (Phytophthora infestans) | Test B control value (Botrytis cinerea) | Test G control value (Plasmopara viticola) | Test H control value [1]
L (50% or less control value): Test A control value (Magnaporthe grisea) | Test D control value [2]

CCCc1cc(Br)c(=O)n(CCC)c1-c1c(F)cc(OC)cc1F [compound 444]
H (more than 50% control value): Test C control value (Alternaia brassicicola) | Test E control value (Puccinia recondita) | Test B control value (Botrytis cinerea) | Test G control value (Plasmopara viticola) | Test H control value [1]
L (50% or less control value): Test A control value (Magnaporthe grisea) | Test F control value (Phytophthora infestans) | Test D control value [2]

CCCc1cc(I)c(=O)n(CCC)c1-c1c(F)cc(OC)cc1F [compound 445]
H (more than 50% control value): Test C control value (Alternaia brassicicola) | Test E control value (Puccinia recondita) | Test B control value (Botrytis cinerea) | Test H control value [1]
L (50% or less control value): Test A control value (Magnaporthe grisea) | Test F control value (Phytophthora infestans) | Test G control value (Plasmopara viticola) | Test D control value [2]

CC(C)C(O)c1cc(Cl)c(=O)n(C)c1-c1c(F)cc(F)cc1F (stereo not shown) [compound 447]
L (50% or less control value): Test F control value (Phytophthora infestans)
H (more than 50% control value): Test A control value (Magnaporthe grisea) | Test C control value (Alternaia brassicicola) | Test E control value (Puccinia recondita) | Test B control value (Botrytis cinerea) | Test G control value (Plasmopara viticola) | Test H control value [1] | Test D control value [2]

CC(C)C(=O)c1cc(Cl)c(=O)n(C)c1-c1c(F)cc(F)cc1F [compound 448]
H (more than 50% control value): Test B control value (Botrytis cinerea)
L (50% or less control value): Test A control value (Magnaporthe grisea) | Test C control value (Alternaia brassicicola) | Test E control value (Puccinia recondita) | Test F control value (Phytophthora infestans) | Test G control value (Plasmopara viticola) | Test H control value [1] | Test D control value [2]

CCn1c(-c2c(F)cc(F)cc2F)c(C=O)ccc1=O [compound 449]
H (more than 50% control value): Test B control value (Botrytis cinerea)
L (50% or less control value): Test A control value (Magnaporthe grisea) | Test C control value (Alternaia brassicicola) | Test E control value (Puccinia recondita) | Test F control value (Phytophthora infestans) | Test G control value (Plasmopara viticola) | Test H control value [1] | Test D control value [2]

CC(C)C(C)(O)c1cc(Cl)c(=O)n(C)c1-c1c(F)cc(F)cc1F (stereo not shown) [compound 450]
H (more than 50% control value): Test A control value (Magnaporthe grisea) | Test C control value (Alternaia brassicicola) | Test E control value (Puccinia recondita) | Test F control value (Phytophthora infestans) | Test B control value (Botrytis cinerea) | Test G control value (Plasmopara viticola) | Test H control value [1] | Test D control value [2]

CCOC(C)(c1cc(Cl)c(=O)n(C)c1-c1c(F)cc(F)cc1F)C(C)C (stereo not shown) [compound 451]
L (50% or less control value): Test C control value (Alternaia brassicicola) | Test E control value (Puccinia recondita) | Test F control value (Phytophthora infestans) | Test B control value (Botrytis cinerea) | Test G control value (Plasmopara viticola) | Test H control value [1]
H (more than 50% control value): Test A control value (Magnaporthe grisea) | Test D control value [2]

COC(C)(c1cc(Cl)c(=O)n(C)c1-c1c(F)cc(F)cc1F)C(C)C (stereo not shown) [compound 452]
L (50% or less control value): Test F control value (Phytophthora infestans)
H (more than 50% control value): Test A control value (Magnaporthe grisea) | Test C control value (Alternaia brassicicola) | Test E control value (Puccinia recondita) | Test B control value (Botrytis cinerea) | Test G control value (Plasmopara viticola) | Test H control value [1] | Test D control value [2]

CCn1c(-c2c(F)cc(F)cc2F)c(C(O)C(C)C)ccc1=O (stereo not shown) [compound 453]
L (50% or less control value): Test A control value (Magnaporthe grisea) | Test F control value (Phytophthora infestans)
H (more than 50% control value): Test C control value (Alternaia brassicicola) | Test E control value (Puccinia recondita) | Test B control value (Botrytis cinerea) | Test G control value (Plasmopara viticola) | Test H control value [1] | Test D control value [2]

CCn1c(-c2c(F)cc(F)cc2F)c(C(=O)C(C)C)ccc1=O [compound 454]
H (more than 50% control value): Test C control value (Alternaia brassicicola) | Test E control value (Puccinia recondita) | Test B control value (Botrytis cinerea) | Test H control value [1] | Test D control value [2]
L (50% or less control value): Test A control value (Magnaporthe grisea) | Test F control value (Phytophthora infestans) | Test G control value (Plasmopara viticola)

CCn1c(-c2c(F)cc(F)cc2F)c(C(C)(O)C(C)C)ccc1=O (stereo not shown) [compound 455]
H (more than 50% control value): Test C control value (Alternaia brassicicola) | Test E control value (Puccinia recondita) | Test B control value (Botrytis cinerea) | Test G control value (Plasmopara viticola) | Test H control value [1] | Test D control value [2]
L (50% or less control value): Test A control value (Magnaporthe grisea) | Test F control value (Phytophthora infestans)

CCCc1ccc(=O)n(CC)c1-c1c(F)cc(OCC)cc1F [compound 456]
H (more than 50% control value): Test A control value (Magnaporthe grisea) | Test C control value (Alternaia brassicicola) | Test E control value (Puccinia recondita) | Test B control value (Botrytis cinerea) | Test G control value (Plasmopara viticola) | Test H control value [1] | Test D control value [2]
L (50% or less control value): Test F control value (Phytophthora infestans)

CCCc1cc(Cl)c(=O)n(CC)c1-c1c(F)cc(OCC)cc1F [compound 457]
H (more than 50% control value): Test A control value (Magnaporthe grisea) | Test C control value (Alternaia brassicicola) | Test E control value (Puccinia recondita) | Test B control value (Botrytis cinerea) | Test H control value [1] | Test D control value [2]
L (50% or less control value): Test F control value (Phytophthora infestans) | Test G control value (Plasmopara viticola)

CCCc1cc(Br)c(=O)n(CC)c1-c1c(F)cc(OCC)cc1F [compound 458]
H (more than 50% control value): Test A control value (Magnaporthe grisea) | Test C control value (Alternaia brassicicola) | Test E control value (Puccinia recondita) | Test B control value (Botrytis cinerea) | Test G control value (Plasmopara viticola) | Test H control value [1] | Test D control value [2]
L (50% or less control value): Test F control value (Phytophthora infestans)
